Experimental data: patent US7235679B2, “Crystals of a vitamin D derivative and a method for the preparation thereof” (Chugai Seiyaku Kabushiki Kaisha, priority 1996, dated 2007)

Assays:
Format in all cases: physicochemical
[1] = Stability test of ED-71: absorbance measurement at 265 nm (E 1%); details: absorbance at 265 nm
Description: (§1) Amorphous and crystalline ED-71 compounds were tested for stability at 10, 25 and […]. To estimate the stability, HPLC quantitative assay and absorbance and purity measurements were utilized. The purity was expressed as peak area ratio in percentage in HPLC (% P.A.R.). The test was carried out by using the following procedures:
(§2) About 2 mg portions of each of the amorphous and crystalline samples are precisely weighed into transparent 10 ml test tubes each having screw cap, individually.
(§3) The test tubes are purged with argon using a vacuum desiccator and a glove box. This purging procedure is not applied to the test tubes indicated as “1 M (air)” in the tables below.
(§4) The test tubes in groups are fixed in thermostatic baths which are respectively controlled at the above temperatures and allowed to stand in the dark. After one (1 W) or two (2 W) weeks or one month (1 M), the test tubes are removed from the baths and subjected to the following assay and measurements:
1 ml of the sample solution as prepared in “HPLC quantitative assay” above is diluted with absolute ethanol to give a whole volume of 10 ml and this diluted solution is then measured for the absorbance at 265 nm using a ultraviolet spectrophotometer. The absorbance is converted into E 1% value which is derived from Lambert-Beer Law and the conversion is made according to the following equation: E1%=A/cb wherein A is absorbance, c is concentration in g/100 ml and b is length of optical path in cm across the test solution, which is commonly 1. (4) Purity Measurement

[2] = Stability test of ED-71: purity measurement using normal phase HPLC; details: 265 nm
Description: as §1, §2, §3, §4
1 ml of the sample solution as prepared in “HPLC quantitative assay” above is dried in vacuo to remove the solvent (absolute ethanol). The residue is dissolved in 1 ml of methylene chloride. HPLC assay is carried out using 25 μl of this solution. • HPLC conditions used: • Column: YMC A-004SIL (4.6×300 mm) • Mobile phase: methylene chloride/methanol mixture (96/4) • Flow rate: 1.8 ml/min • Detection: at UV 265 nm.

[3] = Stability test of ED-71: purity measurement using reverse phase HPLC; details: 220 nm, 10° C.
Description: as §1, §2, §3, §4
HPLC is carried out using 25 μl of the sample solution as prepared in “HPLC quantitative assay” above. • HPLC conditions used: • Column: Inertsil ODS-2 (5×250 mm) • Mobile phase: acetonitrile/water mixture (55/45) • Flow rate: 1 ml/min • Detection: at UV 265 and 220 nm.

Question: Which “E 1%” value ([1]; 10° C., 1 M (air), dark) does the source give for `C=C1/C(=C\C=C2/CCC[C@@]3(C)C2CC[C@@H]3[C@H](C)CCCC(C)(C)O)C[C@@H](O)[C@@H](OCCCO)[C@@H]1O` (stereo partly drawn) [Amor., 1α,25-dihydroxy-2β-(3-hydroxypropoxy)vitamin D3] here?
Answer: 316.3

Question: And the “E 1%” value ([1]; 10° C., 1 M, argon, dark)?
Answer: 320.5

Question: What about the “E 1%” value ([1]; 10° C., 2 W, argon, dark) of the same compound?
Answer: 324.9

Question: What about the “E 1%” value ([1]; 10° C., time 0) of the same compound?
Answer: 327.5

Question: And the “E 1%” value ([1]; 25° C., 1 W, argon, dark)?
Answer: 323.0

Question: And the “E 1%” value ([1]; 25° C., 2 W, argon, dark)?
Answer: 316.9

Question: And the “E 1%” value ([1]; 25° C., time 0)?
Answer: 327.5

Question: And the “E 1%” value ([1]; 40° C., 1 W, argon, dark)?
Answer: 313.2

Question: And the “E 1%” value ([1]; 40° C., 2 W, argon, dark)?
Answer: 304.0

Question: What about the “E 1%” value ([1]; 40° C., time 0) of the same compound?
Answer: 327.5

Question: What about the “Purity Measurement Using Normal Phase HPLC, ED-71 peak” value ([2]; 10° C., 1 M (air), dark) of the same compound?
Answer: 95.26 % P.A.R

Question: What about the “Purity Measurement Using Normal Phase HPLC, Other peaks” value ([2]; 10° C., 1 M (air), dark) of the same compound?
Answer: 2.42 % P.A.R

Question: What about the “Purity Measurement Using Normal Phase HPLC, Pre Form peak” value ([2]; 10° C., 1 M (air), dark) of the same compound?
Answer: 2.31 % P.A.R

Question: And the “Purity Measurement Using Normal Phase HPLC, ED-71 peak” value ([2]; 10° C., 1 M, argon, dark)?
Answer: 94.58 % P.A.R

Question: What about the “Purity Measurement Using Normal Phase HPLC, Other peaks” value ([2]; 10° C., 1 M, argon, dark) of the same compound?
Answer: 3.09 % P.A.R

Question: And the “Purity Measurement Using Normal Phase HPLC, Pre Form peak” value ([2]; 10° C., 1 M, argon, dark)?
Answer: 2.33 % P.A.R

Question: What about the “Purity Measurement Using Normal Phase HPLC, ED-71 peak” value ([2]; 10° C., 2 W, argon, dark) of the same compound?
Answer: 95.46 % P.A.R

Question: And the “Purity Measurement Using Normal Phase HPLC, Other peaks” value ([2]; 10° C., 2 W, argon, dark)?
Answer: 2.28 % P.A.R

Question: What about the “Purity Measurement Using Normal Phase HPLC, Pre Form peak” value ([2]; 10° C., 2 W, argon, dark) of the same compound?
Answer: 2.27 % P.A.R

Question: What about the “Purity Measurement Using Normal Phase HPLC, ED-71 peak” value ([2]; 10° C., time 0) of the same compound?
Answer: 96.06 % P.A.R

Question: And the “Purity Measurement Using Normal Phase HPLC, Other peaks” value ([2]; 10° C., time 0)?
Answer: 2.27 % P.A.R

Question: And the “Purity Measurement Using Normal Phase HPLC, Pre Form peak” value ([2]; 10° C., time 0)?
Answer: 1.67 % P.A.R

Question: What about the “Purity Measurement Using Normal Phase HPLC, ED-71 peak” value ([2]; 25° C., 1 W, argon, dark) of the same compound?
Answer: 95.97 % P.A.R

Question: What about the “Purity Measurement Using Normal Phase HPLC, Other peaks” value ([2]; 25° C., 1 W, argon, dark) of the same compound?
Answer: 2.14 % P.A.R

Question: What about the “Purity Measurement Using Normal Phase HPLC, Pre Form peak” value ([2]; 25° C., 1 W, argon, dark) of the same compound?
Answer: 1.88 % P.A.R

Question: What about the “Purity Measurement Using Normal Phase HPLC, ED-71 peak” value ([2]; 25° C., 2 W, argon, dark) of the same compound?
Answer: 94.74 % P.A.R

Question: What about the “Purity Measurement Using Normal Phase HPLC, Other peaks” value ([2]; 25° C., 2 W, argon, dark) of the same compound?
Answer: 3.01 % P.A.R

Question: What about the “Purity Measurement Using Normal Phase HPLC, Pre Form peak” value ([2]; 25° C., 2 W, argon, dark) of the same compound?
Answer: 2.25 % P.A.R

Question: And the “Purity Measurement Using Normal Phase HPLC, ED-71 peak” value ([2]; 25° C., time 0)?
Answer: 96.06 % P.A.R

Question: And the “Purity Measurement Using Normal Phase HPLC, Other peaks” value ([2]; 25° C., time 0)?
Answer: 2.27 % P.A.R

Question: What about the “Purity Measurement Using Normal Phase HPLC, Pre Form peak” value ([2]; 25° C., time 0) of the same compound?
Answer: 1.67 % P.A.R

Question: What about the “Purity Measurement Using Normal Phase HPLC, ED-71 peak” value ([2]; 40° C., 1 W, argon, dark) of the same compound?
Answer: 94.47 % P.A.R

Question: What about the “Purity Measurement Using Normal Phase HPLC, Other peaks” value ([2]; 40° C., 1 W, argon, dark) of the same compound?
Answer: 3.00 % P.A.R

Question: What about the “Purity Measurement Using Normal Phase HPLC, Pre Form peak” value ([2]; 40° C., 1 W, argon, dark) of the same compound?
Answer: 2.53 % P.A.R

Question: And the “Purity Measurement Using Normal Phase HPLC, ED-71 peak” value ([2]; 40° C., 2 W, argon, dark)?
Answer: 92.12 % P.A.R

Question: What about the “Purity Measurement Using Normal Phase HPLC, Other peaks” value ([2]; 40° C., 2 W, argon, dark) of the same compound?
Answer: 4.89 % P.A.R

Question: What about the “Purity Measurement Using Normal Phase HPLC, Pre Form peak” value ([2]; 40° C., 2 W, argon, dark) of the same compound?
Answer: 2.99 % P.A.R

Question: And the “Purity Measurement Using Normal Phase HPLC, ED-71 peak” value ([2]; 40° C., time 0)?
Answer: 96.06 % P.A.R

Question: What about the “Purity Measurement Using Normal Phase HPLC, Other peaks” value ([2]; 40° C., time 0) of the same compound?
Answer: 2.27 % P.A.R

Question: What about the “Purity Measurement Using Normal Phase HPLC, Pre Form peak” value ([2]; 40° C., time 0) of the same compound?
Answer: 1.67 % P.A.R

Question: And the “220 nm (%), ED-71 peak” value ([3]; 1 M (air), dark)?
Answer: 92.07%

Question: And the “220 nm (%), Other peaks” value ([3]; 1 M (air), dark)?
Answer: 5.88%

Question: What about the “220 nm (%), Pre Form peak” value ([3]; 1 M (air), dark) of the same compound?
Answer: 2.04%

Question: And the “220 nm (%), ED-71 peak” value ([3]; 1 M, argon, dark)?
Answer: 92.85%

Question: And the “220 nm (%), Other peaks” value ([3]; 1 M, argon, dark)?
Answer: 5.13%

Question: And the “220 nm (%), Pre Form peak” value ([3]; 1 M, argon, dark)?
Answer: 2.02%

Question: And the “220 nm (%), ED-71 peak” value ([3]; 2 W, argon, dark)?
Answer: 92.85%

Question: What about the “220 nm (%), Other peaks” value ([3]; 2 W, argon, dark) of the same compound?
Answer: 5.13%

Question: What about the “220 nm (%), Pre Form peak” value ([3]; 2 W, argon, dark) of the same compound?
Answer: 2.02%

Question: And the “220 nm (%), ED-71 peak” value ([3]; time 0)?
Answer: 93.95%
